The values below come from PMC2375285, “Inhibition of all-TRANS-retinoic acid metabolism by R116010 induces antitumour activity” (British Journal of Cancer, 2002).

Data set [1] concerns CYP3A. Kind of data set: Testosterone 6β-hydroxylase in rat liver microsomes. The conditions noted are these: probe testosterone. Background: Liver microsomes are a subcellular fraction often used to study metabolism.
Description: (§1) The conversion of androstenedione to estrone by aromatase (CYP19) in human placental microsomes, the conversion of 17-hydroxy-20-dihydroprogesterone to testosterone by 17,20-lyase (CYP17) in rat testicular S10 fractions, and the 2α-, 7α-, 6β-, and 16β-hydroxylation of testosterone (CYP2C11, CYP2A1, CYP3A, CYP2B1/2) in rat liver microsomes were carried out as described ([Vanden Bossche et al, 1990]).
Data set [2] deals with T1, CYP26A1 (Homo sapiens, UniProt O43174).
T1 construct: microsomes of T47D human breast cancer cells that were pretreated for 16 h with 1 μM RA to induce RA metabolism; endogenous in cells; host or cells: T47D human breast cancer cells, pretreated with 1 μM RA for 16 h; microsomal fraction
T1 sequence (O43174 1-497): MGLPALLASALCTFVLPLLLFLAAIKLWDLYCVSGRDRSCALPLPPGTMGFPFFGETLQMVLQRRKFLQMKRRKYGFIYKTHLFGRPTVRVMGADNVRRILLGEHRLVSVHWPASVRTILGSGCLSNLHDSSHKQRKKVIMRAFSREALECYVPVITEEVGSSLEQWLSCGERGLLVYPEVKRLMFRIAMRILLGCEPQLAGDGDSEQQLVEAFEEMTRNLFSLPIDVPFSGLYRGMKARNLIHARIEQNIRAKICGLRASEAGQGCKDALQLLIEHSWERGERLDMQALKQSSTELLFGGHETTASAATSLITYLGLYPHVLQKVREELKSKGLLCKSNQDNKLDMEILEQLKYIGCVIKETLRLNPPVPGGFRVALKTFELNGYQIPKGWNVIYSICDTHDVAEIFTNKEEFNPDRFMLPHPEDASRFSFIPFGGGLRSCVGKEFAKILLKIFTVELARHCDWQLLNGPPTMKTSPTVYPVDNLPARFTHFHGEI
As to the kind of experiment: RA 4-hydroxylase in T47D human breast cancer microsomes. Format: biochemical.
Description: Metabolism of RA by CYP26A1 was measured in microsomes of T47D human breast cancer cells that were pretreated for 16 h with 1 μM RA to induce RA metabolism. Microsomes were prepared exactly as described by [Han and Choi (1996)], and RA metabolism was measured as described by [Van Wauwe et al (1994)]. The conversion of androstenedione to estrone by aromatase (CYP19) in human placental microsomes, the conversion of 17-hydroxy-20-dihydroprogesterone to testosterone by 17,20-lyase (CYP17) in rat testicular S10 fractions, and the 2α-, 7α-, 6β-, and 16β-hydroxylation of testosterone (CYP2C11, CYP2A1, CYP3A, CYP2B1/2) in rat liver microsomes were carried out as described ([Vanden Bossche et al, 1990]).

Data set [3] in a line: in vivo. The following applies: mouse, po.
Description: Cells (1.5×10^6) were injected intraperitoneally in syngeneic A/J mice. […] Each group consisted of 10 animals for experiments with R116010 and of six animals for experiments with RA. All treatments were performed by oral gavage. […] The control groups were given the vehicle 20% 4-OH-β-cyclodextrine in sterile saline. Mice were daily examined for adverse drug effects. At the end of the experiments, subcutaneous tumours were excised 24 h after the last treatment and weighed to validate the antitumoural effects of the treatment.
Data are represented as box plots showing median group value, 25/75th percentile, 10/90th percentile and outliers. Groups were statistically compared to the vehicle-treated groups using the Mann–Whitney U-test. Significance was defined at the level of P<0.05.
Data set [4] concerns RA metabolism in T47D cells. As to the kind of experiment: Reverse-phase HPLC analysis of radiolabelled RA metabolites in T47D cells. Format: cell-based, human. The following applies: 1 μM R116010; T47D cells pretreated with 1 μM RA. The method, then:
The T47D cell suspension was prepared as described above and 450 μl was incubated with 0.1 μM [11, 12-^3H(N)]RA for 90 min. After centrifugation for 10 min at 780 g, the supernatant was analyzed for the presence of RA metabolites. Reverse-phase HPLC analysis was carried out as described previously ([Van heusden et al, 1998]).

The subject of data set [5] is Lewis lung (3LL) tumours. Set-up: method as in Smets et al, manuscript in preparation. The following applies: in vivo; ref Smets et al, manuscript in preparation; cited from earlier work.
The subject of data set [6] is RA metabolism in intact T47D cells. As to the kind of experiment: Microcolumn assay for RA metabolism in intact T47D cells. It counts as cell-based, human. The procedure: RA metabolism was quantitatively determined using the microcolumn assay as described previously ([Krekels et al, 1997]). […] Cells were then washed twice with culture medium, harvested and resuspended at 4×10^6 cells ml^−1. An aliquot of this cell suspension (450 μl) was incubated for 90 min in the presence of 0.1 μM [11, 12-^3H(N)]RA, after which 2 ml acetonitrile was added. After centrifugation for 10 min at 780 g, the resulting deproteinized supernatant was acidified with 2.5 ml of 40 mM acetic acid and applied to a 3 ml C18 Bond Elut LRC column (Varian, Harbor City, CA, USA; pretreated with 4 ml distilled water) under a vacuum of 127 mmHg using VAC ELUT SPS-24 and the effluent was collected. The column was eluted with 1 ml 40% acetonitrile and the effluent was collected in the same vial. Radioactivity in the collected effluent, containing the polar metabolites, was determined in a Packard Tri-carb 4530 liquid scintillation analyzer. Optiphase ‘Hi Safe II’ (Wallac, Milton Keynes, UK) was used as a scintillator. Data are presented as mean±s.d. of three or four independent experiments. The IC50-values were calculated by non-linear regression analysis using SigmaPlot 4.01 software.

Data set [7] relates to CYP2B1/2. Kind of data set: Testosterone 16β-hydroxylase in rat liver microsomes. Format: biochemical. The conditions noted are these: probe testosterone (16β-hydroxylation).
Description: as §1
In data set [8] the target is T2, CYP2A1 (Rattus norvegicus, UniProt P11711).
T2 construct: hydroxylation of testosterone (CYP2C11, CYP2A1, CYP3A, CYP2B1/2) in rat liver microsomes; from tissue; host or cells: rat liver, microsomes
T2 sequence (P11711 1-492): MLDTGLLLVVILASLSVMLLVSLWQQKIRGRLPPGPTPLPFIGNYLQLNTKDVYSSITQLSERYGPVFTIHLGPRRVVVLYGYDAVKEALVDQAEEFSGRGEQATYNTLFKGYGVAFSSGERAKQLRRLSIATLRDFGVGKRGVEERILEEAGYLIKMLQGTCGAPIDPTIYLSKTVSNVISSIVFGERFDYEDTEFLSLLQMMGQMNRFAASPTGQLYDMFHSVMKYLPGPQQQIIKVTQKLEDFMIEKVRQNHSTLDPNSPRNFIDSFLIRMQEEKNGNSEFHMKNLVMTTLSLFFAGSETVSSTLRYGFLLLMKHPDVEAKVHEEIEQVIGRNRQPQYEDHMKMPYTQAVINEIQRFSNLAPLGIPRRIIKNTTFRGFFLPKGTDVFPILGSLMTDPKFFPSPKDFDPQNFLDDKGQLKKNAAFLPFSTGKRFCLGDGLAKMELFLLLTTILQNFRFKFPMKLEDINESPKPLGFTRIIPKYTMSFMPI
As to the kind of experiment: Testosterone 7α-hydroxylase in rat liver microsomes. Format: biochemical.
Description: as §1

Data set [9] is described as follows: Blood hormone levels in rats treated with R116010. Format: in vivo. The conditions noted are these: 10 mg kg^−1 R116010.

Take `C[C@@H]([C@H](c1ccc(Nc2nc3ccccc3s2)cc1)n1ccnc1)N(C)C` [R116010, [S-(R*,R*)]-N-[4-[2-(dimethylamino)-1-(1H-imidazole-1-yl)propyl]-phenyl]-2-benzothiazolamine]: the IC50 – broadly, the midpoint of a concentration-inhibition curve – in data set [1] is more than 10000 nM; in data set [2], 4 nM; in data set [6] (Homo sapiens, intact T47D cells pretreated 16 h with 1 μM RA, 0.1 μM [3H]RA, 90 min, read-out: IC50 inhibition of formation of polar [3H]RA metabolites (RA metabolism)), 8.7 nM; in data set [7] (Rat liver microsomes) it was more than 10000 nM; in data set [8] (Rat liver microsomes), more than 10000 nM. Further, the inhibition at 10 μM was 41% in [1]; 21% in [7] (10 μM R116010, rat liver microsomes, read-out: percentage of inhibition, Testosterone 16β-hydroxylase (CYP2B1/2)); 12% in data set [8] (probe testosterone (7α-hydroxylation), 10 μM R116010, rat liver microsomes, read-out: percentage of inhibition, Testosterone 7α-hydroxylase (CYP2A1)). The MTD in [3] stood at 5 mg/kg. Further, the “inhibition of RA metabolism (HPLC)” value in data set [4] is recorded as “completely inhibited”. Also, the “growth of subcutaneous mouse Lewis lung (3LL) tumours” value in [5] is “inhibit the growth”. Also, the “fold more potent than liarozole-fumarate as inhibitor of RA metabolism” value in [6] (intact T47D cells) is “over 100 fold”. In [9], the “change in blood hormone levels” value was “no change”.
